As a reminder, the IC50 is the midpoint of a concentration-inhibition curve.

Our source for the GI50 and IC50 values is patent US20240217977A1, “DIAZEPANONE-FUSED PYRIMIDINE COMPOUNDS, COMPOSITIONS AND MEDICINAL APPLICATIONS THEREOF” (Blueprint Medicines Corporation, priority 2021, published 2024).

SMILES strings stand for the structures.

Common to all, as to assay type: cell-based
The target in experiment [1] is HER2 (A775_G775insYVMA) expressing Ba/F3 stable cell line (Homo sapiens, UniProt P04626, DUP772-775, cells depend on it). In words: Cellular proliferation (Alamar Blue) assay, HER2 (A775_G775insYVMA) Ba/F3. The conditions noted are these: 72 hr incubation, read-out: YVMA IC50. As for the experimental part:
(§1) Example 2: Cellular Proliferation (Alamar Blue) Assays
(§2) • 1. EGFR(D770_N771insSVD) expressing Ba/F3 stable cell line • 2. EGFR (A767_dupASV) expressing Ba/F3 stable cell line • 3. A431 cells • 4. EGFR (H773insNPH) expressing Ba/F3 stable cell line • 5. HER2 (A775_G775insYVMA) expressing Ba/F3 stable cell line
(§3) • 1. Seed cells at 5000 for A431 and 15,000 cells for Ba/F3 in 100 μL/well in complete media (for A431: DMEM with 10% FBS and for Ba/F3 cells: RPMI with 10% FBS) in • 96-well tissue culture plate. Leave outer wells without cells for background measurements. Incubate at 37 degree Celsius in 5% C02 humidified incubator for 16-18 hours. • 2. Add 0.025 ml of 5× concentration compound dilution or DMSO control. Final compound concentration range is 10-0.0005 μM prepared in 3-fold serial dilutions. Incubate for 72 hr at 37 degree Celsius in 5% CO2 humidified incubator. • 3. Add 0.0125 ml Alamar Blue™ reagent to each well with multi-channel pipette and tap gently on each side of the plate to mix. Incubate for 3 hours at 37 degree Celsius in 5% CO2 humidified incubator. • 4. Read plates on fluorescence reader (Tecan Spark Control, Device: Spark, Serial #: 1801006040) at 540 nm excitation, 590 nm emission wavelength. • 5. Data analysis was performed using XLfit 5.5.0.5.

For another experiment, the system named is A431 cells. Briefly: Cellular proliferation (Alamar Blue) assay, A431 cells. The conditions noted are these: Homo sapiens, A-431, 72 hr incubation. On the procedure: as §1, §2, §3
For orientation: The colour change of resazurin is a common sign of viable cells or microbes.

The target of experiment [2] is EGFR (A767_dupASV) expressing Ba/F3 stable cell line (Homo sapiens, UniProt P00533, DUP767-769, cells depend on it). Briefly: Cellular proliferation (Alamar Blue) assay, EGFR (A767_dupASV) Ba/F3. The conditions noted are these: 72 hr incubation, read-out: A767 IC50. On the procedure: as §1, §2, §3
EGFR (A767_dupASV) expressing Ba/F3 stable cell line, sequence (P00533 with tags, fused parts or gaps DUP767-769): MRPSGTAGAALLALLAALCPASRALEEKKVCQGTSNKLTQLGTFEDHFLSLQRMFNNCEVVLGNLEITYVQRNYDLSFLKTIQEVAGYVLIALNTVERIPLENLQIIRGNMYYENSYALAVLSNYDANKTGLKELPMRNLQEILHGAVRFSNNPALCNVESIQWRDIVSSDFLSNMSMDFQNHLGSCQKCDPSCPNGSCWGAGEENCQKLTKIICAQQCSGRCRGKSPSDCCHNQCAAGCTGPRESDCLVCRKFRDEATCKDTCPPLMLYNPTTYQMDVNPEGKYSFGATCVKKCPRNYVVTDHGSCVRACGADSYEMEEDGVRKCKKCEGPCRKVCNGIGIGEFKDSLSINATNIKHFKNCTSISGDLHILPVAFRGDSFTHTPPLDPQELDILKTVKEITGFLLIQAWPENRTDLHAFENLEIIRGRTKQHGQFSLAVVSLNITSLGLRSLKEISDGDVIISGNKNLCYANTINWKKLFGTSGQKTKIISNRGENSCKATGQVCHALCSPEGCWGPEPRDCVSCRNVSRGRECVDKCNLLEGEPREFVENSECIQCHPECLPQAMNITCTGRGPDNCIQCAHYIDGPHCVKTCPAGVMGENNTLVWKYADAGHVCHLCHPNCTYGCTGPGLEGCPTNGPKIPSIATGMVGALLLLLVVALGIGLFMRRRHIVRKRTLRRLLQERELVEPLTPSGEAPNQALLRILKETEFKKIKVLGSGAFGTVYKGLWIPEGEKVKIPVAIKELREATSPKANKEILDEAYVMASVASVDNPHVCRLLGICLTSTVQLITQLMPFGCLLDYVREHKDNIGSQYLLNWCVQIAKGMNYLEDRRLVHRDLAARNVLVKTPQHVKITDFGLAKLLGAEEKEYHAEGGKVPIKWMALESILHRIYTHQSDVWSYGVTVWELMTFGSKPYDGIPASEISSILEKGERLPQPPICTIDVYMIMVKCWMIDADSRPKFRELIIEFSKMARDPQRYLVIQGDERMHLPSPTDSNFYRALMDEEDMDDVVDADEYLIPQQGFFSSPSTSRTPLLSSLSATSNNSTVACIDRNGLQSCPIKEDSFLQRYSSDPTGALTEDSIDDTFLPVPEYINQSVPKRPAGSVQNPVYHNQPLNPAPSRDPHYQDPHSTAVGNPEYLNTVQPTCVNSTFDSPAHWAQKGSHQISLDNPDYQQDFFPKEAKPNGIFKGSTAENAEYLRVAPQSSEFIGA
Experiment [3] deals with EGFR(D770_N771insSVD) expressing Ba/F3 stable cell line (Homo sapiens, UniProt P00533, DUP768-770, cells depend on it). Briefly: Cellular proliferation (Alamar Blue) assay, EGFR(D770_N771insSVD) Ba/F3. The conditions noted are these: 72 hr incubation, read-out: D770 IC50. On the procedure:
as §1, §2, §3

Experiment [4] addresses EGFR (H773insNPH) expressing Ba/F3 stable cell line (Homo sapiens, UniProt P00533, DUP771-773, cells depend on it). In words: Cellular proliferation (Alamar Blue) assay, EGFR (H773insNPH) Ba/F3. The conditions noted are these: 72 hr incubation, read-out: NPH IC50. On the procedure:
as §1, §2, §3

EGFR(D770_N771insSVD) expressing Ba/F3 stable cell line, sequence (P00533 with tags, fused parts or gaps DUP768-770): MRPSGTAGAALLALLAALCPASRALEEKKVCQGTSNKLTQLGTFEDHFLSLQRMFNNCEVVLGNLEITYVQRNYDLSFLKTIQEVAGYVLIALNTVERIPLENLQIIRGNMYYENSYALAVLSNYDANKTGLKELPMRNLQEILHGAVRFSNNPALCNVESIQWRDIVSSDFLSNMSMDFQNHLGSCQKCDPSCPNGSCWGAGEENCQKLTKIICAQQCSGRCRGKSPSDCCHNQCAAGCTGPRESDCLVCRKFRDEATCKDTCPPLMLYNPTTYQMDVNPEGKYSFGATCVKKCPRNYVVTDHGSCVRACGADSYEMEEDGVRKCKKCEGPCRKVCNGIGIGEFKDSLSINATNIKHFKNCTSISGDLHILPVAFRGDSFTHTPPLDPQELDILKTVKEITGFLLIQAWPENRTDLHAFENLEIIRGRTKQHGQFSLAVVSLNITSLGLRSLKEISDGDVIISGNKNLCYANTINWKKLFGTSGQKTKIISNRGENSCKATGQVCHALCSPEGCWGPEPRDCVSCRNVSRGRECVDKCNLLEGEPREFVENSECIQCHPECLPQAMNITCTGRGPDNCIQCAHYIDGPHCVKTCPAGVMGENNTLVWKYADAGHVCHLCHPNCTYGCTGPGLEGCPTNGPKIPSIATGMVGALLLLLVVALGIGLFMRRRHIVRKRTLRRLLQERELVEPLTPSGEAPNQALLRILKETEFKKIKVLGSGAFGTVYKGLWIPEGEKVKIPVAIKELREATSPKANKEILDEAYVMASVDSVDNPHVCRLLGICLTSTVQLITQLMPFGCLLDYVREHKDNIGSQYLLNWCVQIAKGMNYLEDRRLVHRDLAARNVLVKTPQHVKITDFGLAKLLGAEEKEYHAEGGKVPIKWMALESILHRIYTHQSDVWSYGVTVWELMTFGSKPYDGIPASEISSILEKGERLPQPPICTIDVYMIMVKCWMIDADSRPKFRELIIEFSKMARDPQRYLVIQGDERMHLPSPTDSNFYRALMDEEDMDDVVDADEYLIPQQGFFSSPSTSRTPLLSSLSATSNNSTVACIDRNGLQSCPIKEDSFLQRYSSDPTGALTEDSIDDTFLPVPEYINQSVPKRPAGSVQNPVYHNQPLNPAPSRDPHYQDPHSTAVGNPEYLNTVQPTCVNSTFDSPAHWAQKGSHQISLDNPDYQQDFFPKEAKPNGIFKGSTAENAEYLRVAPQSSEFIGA
HER2 (A775_G775insYVMA) expressing Ba/F3 stable cell line, sequence (P04626 with tags, fused parts or gaps DUP772-775): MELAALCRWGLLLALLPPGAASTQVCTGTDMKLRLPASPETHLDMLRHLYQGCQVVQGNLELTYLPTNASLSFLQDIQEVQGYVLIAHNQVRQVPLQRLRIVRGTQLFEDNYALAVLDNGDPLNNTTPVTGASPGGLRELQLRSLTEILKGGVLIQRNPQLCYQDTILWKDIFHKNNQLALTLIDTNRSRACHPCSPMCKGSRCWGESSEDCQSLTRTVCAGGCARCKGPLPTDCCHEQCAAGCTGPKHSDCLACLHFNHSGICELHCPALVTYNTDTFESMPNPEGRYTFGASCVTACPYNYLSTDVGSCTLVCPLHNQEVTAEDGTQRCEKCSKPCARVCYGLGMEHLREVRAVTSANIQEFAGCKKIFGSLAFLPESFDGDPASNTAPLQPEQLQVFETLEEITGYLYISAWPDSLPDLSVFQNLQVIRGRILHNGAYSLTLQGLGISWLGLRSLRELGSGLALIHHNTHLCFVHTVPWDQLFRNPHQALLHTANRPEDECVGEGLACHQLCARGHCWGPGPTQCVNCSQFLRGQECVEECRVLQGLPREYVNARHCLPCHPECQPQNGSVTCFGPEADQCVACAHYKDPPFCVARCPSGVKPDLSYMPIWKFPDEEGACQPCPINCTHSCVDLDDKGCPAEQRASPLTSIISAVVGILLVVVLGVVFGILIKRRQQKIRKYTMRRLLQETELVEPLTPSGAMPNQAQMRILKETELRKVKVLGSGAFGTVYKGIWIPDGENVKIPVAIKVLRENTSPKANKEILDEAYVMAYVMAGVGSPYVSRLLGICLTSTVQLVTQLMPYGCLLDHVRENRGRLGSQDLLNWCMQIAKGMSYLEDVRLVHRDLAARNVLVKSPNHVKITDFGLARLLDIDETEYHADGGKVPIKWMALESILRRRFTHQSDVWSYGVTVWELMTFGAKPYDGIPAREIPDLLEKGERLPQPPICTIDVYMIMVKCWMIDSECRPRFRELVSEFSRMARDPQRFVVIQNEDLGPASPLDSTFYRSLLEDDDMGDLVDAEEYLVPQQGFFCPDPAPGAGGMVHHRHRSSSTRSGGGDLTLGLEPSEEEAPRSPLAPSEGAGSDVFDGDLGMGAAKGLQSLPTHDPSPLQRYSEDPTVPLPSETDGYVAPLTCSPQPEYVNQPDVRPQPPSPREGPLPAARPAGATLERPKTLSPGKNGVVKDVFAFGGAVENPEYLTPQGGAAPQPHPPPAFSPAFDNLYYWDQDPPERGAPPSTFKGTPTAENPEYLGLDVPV
EGFR (H773insNPH) expressing Ba/F3 stable cell line, sequence (P00533 with tags, fused parts or gaps DUP771-773): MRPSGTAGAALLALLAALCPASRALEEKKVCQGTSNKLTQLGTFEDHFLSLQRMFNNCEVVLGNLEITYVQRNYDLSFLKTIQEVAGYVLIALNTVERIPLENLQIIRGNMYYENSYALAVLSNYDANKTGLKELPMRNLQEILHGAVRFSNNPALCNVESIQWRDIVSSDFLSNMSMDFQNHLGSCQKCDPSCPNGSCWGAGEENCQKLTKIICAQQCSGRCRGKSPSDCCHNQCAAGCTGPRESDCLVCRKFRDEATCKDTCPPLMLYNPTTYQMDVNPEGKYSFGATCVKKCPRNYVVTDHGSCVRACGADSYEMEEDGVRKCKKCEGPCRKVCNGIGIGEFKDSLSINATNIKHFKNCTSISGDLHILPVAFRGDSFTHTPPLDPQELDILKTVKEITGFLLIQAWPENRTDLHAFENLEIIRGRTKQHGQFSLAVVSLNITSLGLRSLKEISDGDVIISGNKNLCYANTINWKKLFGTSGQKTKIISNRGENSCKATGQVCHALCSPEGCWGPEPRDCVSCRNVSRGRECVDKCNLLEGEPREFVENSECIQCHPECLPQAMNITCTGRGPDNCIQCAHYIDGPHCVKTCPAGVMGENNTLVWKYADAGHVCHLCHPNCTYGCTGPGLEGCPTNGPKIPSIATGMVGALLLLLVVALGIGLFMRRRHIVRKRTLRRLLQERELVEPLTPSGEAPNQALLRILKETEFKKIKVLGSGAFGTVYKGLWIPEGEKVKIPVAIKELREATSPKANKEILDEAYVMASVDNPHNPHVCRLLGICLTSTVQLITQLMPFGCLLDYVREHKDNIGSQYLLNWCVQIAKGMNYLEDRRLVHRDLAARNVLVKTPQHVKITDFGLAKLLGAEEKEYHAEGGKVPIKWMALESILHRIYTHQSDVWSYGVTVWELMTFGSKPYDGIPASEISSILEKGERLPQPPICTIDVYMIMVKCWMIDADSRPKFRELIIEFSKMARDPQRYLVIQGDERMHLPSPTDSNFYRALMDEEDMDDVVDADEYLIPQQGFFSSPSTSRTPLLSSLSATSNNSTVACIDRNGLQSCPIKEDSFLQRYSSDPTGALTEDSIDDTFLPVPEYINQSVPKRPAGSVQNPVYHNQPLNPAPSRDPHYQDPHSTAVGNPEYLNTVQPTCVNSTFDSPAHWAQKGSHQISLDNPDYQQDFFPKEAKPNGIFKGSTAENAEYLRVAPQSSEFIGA

As for `C=CC(=O)Nc1cccc(N2C(=O)N(Cc3ccccc3)CCc3cnc(Nc4ccc(N5CCN(C)CC5)cc4OC)nc32)c1` [Compound 14, N-(3-(7-benzyl-2-((2-methoxy-4-(4-methylpiperazin-1-yl)phenyl)amino)-8-oxo-5,6,7,8-tetrahydro-9H-pyrimido[4,5-d][1,3]diazepin-9-yl)phenyl)acrylamide], the GI50 in experiment [1] was 15 nM; in experiment [2], 33 nM; in experiment [3], 38 nM; in experiment [4], 32 nM. In addition, half-maximal inhibition with A431 cells (IC50) was put at 34 nM.
For `C=CC(=O)Nc1cccc(N2C(=O)N(Cc3ccccc3)CCc3cnc(Nc4ccc(N5CCN(C)CC5)nc4)nc32)c1` [Compound 16, N-(3-(7-benzyl-2-((6-(4-methylpiperazin-1-yl)pyridin-3-yl)amino)-8-oxo-5,6,7,8-tetrahydro-9H-pyrimido[4,5-d][1,3]diazepin-9-yl)phenyl)acrylamide], in that order: 25 nM, 25 nM, 39 nM, 32 nM and 9 nM.
On to `C=CC(=O)Nc1cccc(N2C(=O)N(Cc3ccccc3)CCc3cnc(Nc4ccc(F)cc4)nc32)c1` [Compound 18, N-(3-(7-benzyl-2-((4-fluorophenyl)amino)-8-oxo-5,6,7,8-tetrahydro-9H-pyrimido[4,5-d][1,3]diazepin-9-yl)phenyl)acrylamide], for which the GI50 in experiment [1] was determined as 31 nM; in experiment [2], 55 nM; in experiment [3] it was 45 nM; in experiment [4] it was 152 nM. In the experiment on A431 cells, the IC50 was 64 nM.
Regarding `C=CC(=O)Nc1cccc(N2C(=O)N(Cc3ccccc3)CCc3cnc(Nc4ccc(N5CCOCC5)nc4)nc32)c1` [Compound 19, N-(3-(7-benzyl-2-((6-morpholinopyridin-3-yl)amino)-8-oxo-5,6,7,8-tetrahydro-9H-pyrimido[4,5-d][1,3]diazepin-9-yl)phenyl)acrylamide], the GI50 is 24 nM in experiment [1], 10 nM in experiment [2], 14 nM in experiment [3] and 25 nM in experiment [4]. In the experiment on A431 cells, this compound displayed a half-inhibitory concentration (IC50) above 10000 nM.
With `C=CC(=O)Nc1cccc(N2C(=O)N(Cc3ccccc3)CCc3cnc(Nc4ccc(F)cc4OC)nc32)c1` [Compound 21, N-(3-(7-benzyl-2-((4-fluoro-2-methoxyphenyl)amino)-8-oxo-5,6,7,8-tetrahydro-9H-pyrimido[4,5-d][1,3]diazepin-9-yl)phenyl)acrylamide], the GI50 in experiment [1] worked out at 44 nM; in experiment [2] it was 97 nM; in experiment [3], 103 nM; in experiment [4], 102 nM. In addition, the midpoint of inhibition in the experiment on A431 cells, the IC50, lay at 40 nM.
As for `C=CC(=O)Nc1cccc(N2C(=O)N(Cc3ccccc3)CCc3cnc(Nc4ccc(N5CCN(C)CC5)c(C)c4)nc32)c1` [Compound 22, N-(3-(7-benzyl-2-((3-methyl-4-(4-methylpiperazin-1-yl)phenyl)amino)-8-oxo-5,6,7,8-tetrahydro-9H-pyrimido[4,5-d][1,3]diazepin-9-yl)phenyl)acrylamide], the GI50 in experiment [1] worked out at 9 nM; in experiment [2] it was 33 nM; in experiment [3], 31 nM; in experiment [4] it was 41 nM. In the experiment on A431 cells, the IC50 stood at 25 nM.
Turning to `C=CC(=O)Nc1cccc(N2C(=O)N(Cc3ccccc3)CCc3cnc(Nc4ccc(F)nc4)nc32)c1` [Compound 26, N-(3-(7-benzyl-2-((6-fluoropyridin-3-yl)amino)-8-oxo-5,6,7,8-tetrahydro-9H-pyrimido[4,5-d][1,3]diazepin-9-yl)phenyl)acrylamide], the GI50 worked out at 33 nM in experiment [1], 67 nM in experiment [2], 35 nM in experiment [3] and 90 nM in experiment [4]. In addition, inhibition in the experiment on A431 cells was half-maximal at 134 nM (IC50).
`C=CC(=O)Nc1cccc(N2C(=O)N(Cc3ccccc3)CCc3cnc(Nc4cn(C5COC5)nc4Cl)nc32)c1` [Compound 28, N-(3-(7-benzyl-2-((3-chloro-1-(oxetan-3-yl)-1H-pyrazol-4-yl)amino)-8-oxo-5,6,7,8-tetrahydro-9H-pyrimido[4,5-d][1,3]diazepin-9-yl)phenyl)acrylamide]: the GI50 in experiment [1] came to 8 nM; in experiment [2], 13 nM; in experiment [3], 12 nM; in experiment [4], 32 nM. This compound also came in with an IC50 with A431 cells of 9 nM.
`C=CC(=O)Nc1cccc(N2C(=O)N(c3ccccc3)CCc3cnc(Nc4cn(C)nc4Cl)nc32)c1` [Compound 29, N-(3-{2-[(3-chloro-1-methyl-1H-pyrazol-4-yl)amino]-8-oxo-7-phenyl-5H,6H,7H,8H,9H-pyrimido[4,5-d][1,3]diazepin-9-yl}phenyl)prop-2-enamide]: the GI50 was found to be 67 nM in experiment [1], 36 nM in experiment [2], 45 nM in experiment [3] and 25 nM in experiment [4]. In addition, in the experiment with A431 cells, the IC50 came out at 16 nM.
Take `Cn1cc(Nc2ncc3c(n2)N(c2cccc(NC(=O)/C=C/CF)c2)C(=O)N(c2ccccc2)CC3)c(Cl)n1` [Compound 33, (E)-N-(3-(2-((3-chloro-1-methyl-1H-pyrazol-4-yl)amino)-8-oxo-7-phenyl-5,6,7,8-tetrahydro-9H-pyrimido[4,5-d][1,3]diazepin-9-yl)phenyl)-4-fluorobut-2-enamide]: the GI50 in experiment [1] was found to be 602 nM; in experiment [2], 128 nM; in experiment [3], 239 nM; in experiment [4] it was 131 nM. In addition, in the experiment with A431 cells, the 50% inhibitory concentration (IC50) is above 10000 nM.
Turning to `C=CC(=O)Nc1cccc(N2C(=O)N(c3ccccc3)CCc3cnc(Nc4cn(C)nc4F)nc32)c1` [Compound 35, N-(3-(2-((3-fluoro-1-methyl-1H-pyrazol-4-yl)amino)-8-oxo-7-phenyl-5,6,7,8-tetrahydro-9H-pyrimido[4,5-d][1,3]diazepin-9-yl)phenyl)acrylamide], the GI50 in experiment [1] stood at 1060 nM; in experiment [2], 117 nM; in experiment [3], 122 nM; in experiment [4], 138 nM. In the experiment on A431 cells, this compound registered a half-inhibitory concentration (IC50) above 10000 nM.
Regarding `C=CC(=O)Nc1cccc(N2C(=O)N(c3ccccc3)CCc3cnc(Nc4ccc(N5CCN(C)CC5)cc4)nc32)c1` [Compound 37, N-(3-(2-((4-(4-methylpiperazin-1-yl)phenyl)amino)-8-oxo-7-phenyl-5,6,7,8-tetrahydro-9H-pyrimido[4,5-d][1,3]diazepin-9-yl)phenyl)acrylamide], the GI50 in experiment [1] came to 138 nM; in experiment [2] it was 38 nM; in experiment [3], 89 nM; in experiment [4], 100 nM. In the experiment on A431 cells, the concentration for half-maximal inhibition (IC50) stood at 7 nM.
For `C=CC(=O)Nc1cccc(N2C(=O)N(c3ccccc3)CCc3cnc(Nc4ccc(N5CCN(C)CC5)cc4OC)nc32)c1` [Compound 39, N-(3-(2-((2-methoxy-4-(4-methylpiperazin-1-yl)phenyl)amino)-8-oxo-7-phenyl-5,6,7,8-tetrahydro-9H-pyrimido[4,5-d][1,3]diazepin-9-yl)phenyl)acrylamide], the GI50 amounted to 131 nM in experiment [1], 39 nM in experiment [2], 92 nM in experiment [3] and 88 nM in experiment [4]. The same compound returned an IC50 in the experiment with A431 cells of 7 nM.
In the same order, the values of `C=CC(=O)Nc1cccc(N2C(=O)N(c3ccccc3)CCc3cnc(Nc4ccc(N5CCN(C)CC5)c(C)c4)nc32)c1` [Compound 41, N-(3-(2-((3-methyl-4-(4-methylpiperazin-1-yl)phenyl)amino)-8-oxo-7-phenyl-5,6,7,8-tetrahydro-9H-pyrimido[4,5-d][1,3]diazepin-9-yl)phenyl)acrylamide] are 29 nM, 32 nM, 41 nM, 27 nM and 102 nM.
Take `C=CC(=O)Nc1cccc(N2C(=O)N(c3ccc(F)cc3)CCc3cnc(Nc4cn(C)nc4Cl)nc32)c1` [Compound 42, N-(3-(2-((3-chloro-1-methyl-1H-pyrazol-4-yl)amino)-7-(4-fluorophenyl)-8-oxo-5,6,7,8-tetrahydro-9H-pyrimido[4,5-d][1,3]diazepin-9-yl)phenyl)acrylamide]: the GI50 in experiment [1] was found to be 91 nM; in experiment [2] it was 75 nM; in experiment [3], 110 nM; in experiment [4], 3 nM. In the experiment with A431 cells, this compound registered a half-inhibitory concentration (IC50) of 23 nM.
Regarding `C=CC(=O)Nc1cccc(N2C(=O)N(c3ccccc3)CCc3cnc(Nc4cccnc4F)nc32)c1` [Compound 43, N-(3-{12-[(2-fluoropyridin-3-yl)amino]-8-oxo-7-phenyl-5H,6H,7H,8H,9H-pyrimido[4,5-d][1,3]diazepin-9-yl}phenyl)prop-2-enamide], the GI50 was determined as 1360 nM in experiment [1], 146 nM in experiment [2], 239 nM in experiment [3] and 193 nM in experiment [4]. This compound yielded a half-inhibitory concentration (IC50) in the experiment with A431 cells above 10000 nM.
